For the assay, the target named is T1, Human IBAT (Homo sapiens, UniProt Q12908).
T1 construct: expressed in transfected cells; cells kept under Puromycin selection
T1 sequence (Q12908 1-348): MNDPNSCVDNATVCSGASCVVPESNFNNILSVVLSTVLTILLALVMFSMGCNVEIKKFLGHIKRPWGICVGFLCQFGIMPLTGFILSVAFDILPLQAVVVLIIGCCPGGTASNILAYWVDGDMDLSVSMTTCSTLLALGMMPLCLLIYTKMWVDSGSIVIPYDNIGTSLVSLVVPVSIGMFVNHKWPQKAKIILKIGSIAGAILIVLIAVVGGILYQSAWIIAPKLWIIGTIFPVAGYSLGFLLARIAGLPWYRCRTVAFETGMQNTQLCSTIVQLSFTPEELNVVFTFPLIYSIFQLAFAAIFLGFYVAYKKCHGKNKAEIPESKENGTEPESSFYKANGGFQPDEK
In words: IBAT (h) assay: 3H-taurocholic acid uptake in human IBAT-overexpressing cells. The assay is classed as cell-based. The conditions noted are these: 0.25 μM 3H-taurocholic acid and 5 μM cold taurocholic acid, 20 minutes, read-out: hIBAT IC50. In a few lines:
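IBAT-overexpressing cells, grown 48 h, were exposed 20 min at 37° C to inhibitor (10-point 3-fold series, top 10 μM, 0.2% DMSO) with 0.25 μM 3H-taurocholic acid plus 5 μM cold taurocholate in FBS-free medium. After ice stop and washes with chilled 1 mM taurocholate in HEPES-HBSS pH 7.4, cell-associated radioactivity was scintillation-counted.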

Take `CCCCC1(CCCC)CN(c2ccc(Br)cc2)c2cc(SC)c(OCC(=O)O)cc2S(=O)(=O)C1` [Example 3, 2-((5-(4-bromophenyl)-3,3-dibutyl-7-(methylthio)-1,1-dioxido-2,3,4,5-tetrahydro-1,5-benzothiazepin-8-yl)oxy)acetic Acid]: the IC50 (commonly the concentration that inhibits the measured activity by half) was determined as 26 nM.

For the compound `CCCCC1(CCCC)CN(c2ccc(O)cc2)c2cc(SC)c(OCC(=O)O)cc2S(=O)(=O)C1` [Example 4, 2-((3,3-dibutyl-5-(4-hydroxyphenyl)-7-(methylthio)-1,1-dioxido-2,3,4,5-tetrahydro-1,5-benzothiazepin-8-yl)oxy)acetic Acid], the IC50 was 15 nM.

The record behind these values is patent US11014898B1, “Benzothiazepine compounds and their use as bile acid modulators” (Albireo AB, priority 2020, dated 2021).
